The values that follow come from patent US9737526B2, “Methods for treating Parkinson's disease” (INNOTESTO BVBA, priority 2012, dated 2017).

Several values for one entry are separate records, joined by “and”; a condition that tells them apart may be missing. Equal values may be shown once. Where a name gives a salt, the structure may show the parent alone. Read-outs that look alike come from different tables or passages of the source.

Data set [1] is described as follows: Solubilities of constituents in non-aqueous solvents. The data set is classed as physicochemical. The note with it: organic solvent or mixture. On the procedure: In a series of experiments, the solubilities of several constituents that may be used in the solution of the present invention were measured: […]
A short description of data set [2]: Stability experiments using ultraperformance liquid chromatography (UPLC). The data set is classed as physicochemical. The source says:
In stability experiments using ultraperformance liquid chromatography (UPLC) we confirmed that, in accordance with the scientific literature, apomorphine hydrochloride in aqueous solutions is not stable. It is quickly decomposed on storage.

Data set [3] relates to Parkinson's disease subjects. The note with it: cited from earlier work; for time to peak benefit: nine Parkinson's disease subjects.
The conditions of data set [4]: water; also printed as 1% w/w; cited from earlier work.
Data set [5] deals with ciliated respiratory tissue. The conditions noted are these: 25% propylene glycol, 15% glycerol, 25% polyethylene glycol 400, 5% povidone in Locke-Ringer solution (WO2005/067893); cited from earlier work.
In data set [6] the test system is ciliated respiratory tissue. Nature of the data set: Effect on ciliary beat frequency (CBF) of ciliated tissue, rinsing with Locke-Ringer solution after 15 minutes. The data set is classed as cell-based. The note with it: for reversibility of effect on CBF: rinsing with LR after 15 minutes. On the procedure: Disclosed are in vitro experiments, according to a previously published method (Merkus et al, 2001), describing the effect of four different solubilizers [25% propylene glycol, 15% glycerol, 25% polyethylene glycol 400 and 5% povidone], dissolved in a Locke-Ringer solution, on the ciliary beat frequency (CBF) of ciliated tissue. […] However, after rinsing with a pure Locke-Ringer solution, the effects on CBF appeared to be completely reversed within 20 minutes.
No ciliary beat frequency could be measured any more. […] Obviously the ciliated cells have been irreversibly damaged by the extreme hyperosmolar concentration of 50% propylene glycol. […] Thus, a nasal formulation containing a drug like apomorphine, dissolved in 50% or more (v/v) propylene glycol, is not a viable option, because it has to be administered in Parkinson's disease on a regular basis, for instance daily or several times per day or per week. On the other hand, such a high concentration of propylene glycol is needed to solubilise sufficient apomorphine (several mg per 0.1 ml) to treat a patient with off-periods in Parkinson's disease.
FIG. 1 is a graph showing the effect of 10% (v/v) propylene glycol (closed circles) or control (open circles) on ciliary beat frequency (CBF) of ciliated respiratory tissue. After 15 minutes contact with 10% (v/v) propylene glycol, tissue is rinsed with pure Locke-Ringer (LR) solution.
FIG. 2 is a graph showing the effect of 25% (v/v) propylene glycol (closed circles) or control (open circles) on ciliary beat frequency (CBF) of ciliated respiratory tissue. After 15 minutes contact with 25% (v/v) propylene glycol, tissue is rinsed with pure Locke-Ringer (LR) solution.
FIG. 3 is a graph showing the effect of 50% (v/v) propylene glycol (closed circles) or control (open circles) on ciliary beat frequency (CBF) of ciliated respiratory tissue. After 15 minutes contact with 50% (v/v) propylene glycol, tissue is rinsed with pure Locke-Ringer (LR) solution.
After 15 minutes contacts with 10% (v/v) propylene glycol, tissue is rinsed with pure Locke-Ringer (LR) solution.
After 15 minute contacts with 25% (v/v) propylene glycol, tissue is rinsed with pure Locke-Ringer (LR) solution.
After 15 minute contacts with 50% (v/v) propylene glycol, tissue is rinsed with pure Locke-Ringer (LR) solution.

Setting [7] is: solvent ethanol, read-out: solubility in ethanol.
Where [8] appears, read: solvent propylene glycol, read-out: solubility in propylene glycol.
Setting [9] is: 10% propylene glycol in Locke-Ringer solution, time 0 min.
[10] abbreviates: 10% propylene glycol in Locke-Ringer solution, time 5 min.
Where [11] appears, read: 10% propylene glycol in Locke-Ringer solution, time 10 min.
[12] abbreviates: 10% propylene glycol in Locke-Ringer solution, time 15 min.
Setting [13] is: 10% propylene glycol, time 20 min, after rinsing with LR at 15 min.
Setting [14] is: 10% propylene glycol, time 30 min, after rinsing with LR at 15 min.
Where [15] appears, read: 10% propylene glycol, time 40 min, after rinsing with LR at 15 min.
Setting [16] is: 10% propylene glycol, time 50 min, after rinsing with LR at 15 min.
Where [17] appears, read: 10% propylene glycol, time 60 min, after rinsing with LR at 15 min.
Setting [18] is: 25% propylene glycol in Locke-Ringer solution, time 0 min.
Where [19] appears, read: 25% propylene glycol in Locke-Ringer solution, time 15 min.
Where [20] appears, read: 25% propylene glycol, time 20 min, after rinsing with LR at 15 min.
Where [21] appears, read: 25% propylene glycol, time 30 min, after rinsing with LR at 15 min.
[22] abbreviates: 25% propylene glycol, time 40 min, after rinsing with LR at 15 min.
[23] abbreviates: 25% propylene glycol, time 50 min, after rinsing with LR at 15 min.
Setting [24] is: 25% propylene glycol, time 60 min, after rinsing with LR at 15 min.
The mark [25] stands for this setting: 50% propylene glycol in Locke-Ringer solution, time 0 min.
[26] abbreviates: 50% propylene glycol in Locke-Ringer solution, time 5 min.
[27] abbreviates: 50% propylene glycol in Locke-Ringer solution, time 10 min.
Setting [28] is: 50% propylene glycol in Locke-Ringer solution, time 15 min.
The mark [29] stands for this setting: 50% propylene glycol, time 20 min, after rinsing with LR at 15 min.
[30] abbreviates: 50% propylene glycol, time 30 min, after rinsing with LR at 15 min.
[31] abbreviates: 50% propylene glycol, time 40 min, after rinsing with LR at 15 min.
The mark [32] stands for this setting: 50% propylene glycol, time 50 min, after rinsing with LR at 15 min.
The mark [33] stands for this setting: 50% propylene glycol, time 60 min, after rinsing with LR at 15 min.

As for `CN1CCc2cccc3c2[C@H]1Cc1ccc(O)c(O)c1-3` [Apomorphine HCl], the solubility stood at 15 mg/mL in data set [1] (solvent PEG 400, read-out: solubility in PEG 400); 20 mg/mL in data set [1] (setting [7]); 35 mg/mL in data set [1] (solvent glycerol, read-out: solubility in glycerol); 80 mg/mL in data set [1] (setting [8]). Also, the stability on storage entry in data set [2] (aqueous solutions) is “not stable”; in data set [2] (non-aqueous solutions in propylene glycol, compared with aqueous), “more stable”.

Consider `O=C1NS(=O)(=O)c2ccccc21.[Na]` [Saccharin sodium], for which the solubility in data set [1] (setting [7]) was determined as 20 mg/mL; in data set [1] (setting [8]), 250 mg/mL.

`CN1CCc2cccc3c2[C@H]1Cc1ccc(O)c(O)c1-3` [apomorphine]: the “time to peak benefit” value in data set [3] (3 mg apomorphine subcutaneous injection) was 21 min; in data set [3] (30 mg apomorphine sublingual tablets) it was greater than 40 min. In data set [3] (chronic use of the sublingual formulation), the “stomatitis on chronic use” value is “severe stomatitis in half the subjects”. For the same compound, in data set [4], the aqueous solubility result is “about 10 mg/ml”.

With `OCC(O)CO` [glycerol], in data set [5], the “effect on CBF after 15 minutes” value is reported as “strong decrease”.

Take `CC(O)CO` (stereo not shown) [propylene glycol]: in data set [5], the “effect on CBF after 15 minutes” value was “strong decrease”. The “CBF (% of initial value), Mean” value in data set [6] (setting [9]) was 100 % of initial value; in data set [6] (setting [10]), 54 % of initial value; in data set [6] (setting [11]), 54 % of initial value; in data set [6] (setting [12]), 50 % of initial value; in data set [6] (setting [13]), 98 % of initial value; in data set [6] (setting [14]), 97 % of initial value. Further, the “CBF (% of initial value), Mean” value in data set [6] (setting [15]) is 96 % of initial value; in data set [6] (setting [16]) it was 95 % of initial value; in data set [6] (setting [17]), 94 % of initial value; in data set [6] (setting [18]), 100 % of initial value; in data set [6] (25% propylene glycol in Locke-Ringer solution, time 5 min) it was 11 % of initial value; in data set [6] (25% propylene glycol in Locke-Ringer solution, time 10 min), 3 % of initial value. The “CBF (% of initial value), Mean” value in data set [6] (setting [19]) is on record as 0 % of initial value; in data set [6] (setting [20]), 80 % of initial value; in data set [6] (setting [21]), 86 % of initial value; in data set [6] (setting [22]) it was 97 % of initial value; in data set [6] (setting [23]) it was 98 % of initial value; in data set [6] (setting [24]) it was 97 % of initial value. Also, the “CBF (% of initial value), Mean” value was 100 % of initial value in data set [6] (setting [25]); 0 % of initial value in data set [6] (setting [26]); 0 % of initial value in data set [6] (setting [27]); 0 % of initial value in data set [6] (setting [28]); 0 % of initial value in data set [6] (setting [29]); 0 % of initial value in data set [6] (setting [30]). For the same compound, the “CBF (% of initial value), Mean” value in data set [6] (setting [31]), in data set [6] (setting [32]) and in data set [6] (setting [33]) was 0 % of initial value in each case. In addition, the “CBF (% of initial value), single experiments” value in data set [6] (setting [9]) is 100 % of initial value; in data set [6] (setting [10]), 46 % of initial value and 58 % of initial value and 56 % of initial value and 51 % of initial value and 60 % of initial value; in data set [6] (setting [11]) it was 50 % of initial value and 55 % of initial value and 63 % of initial value and 45 % of initial value; in data set [6] (setting [12]) it was 57 % of initial value and 52 % of initial value and 43 % of initial value and 51 % of initial value and 45 % of initial value; in data set [6] (setting [13]), 91 % of initial value and 92 % of initial value and 118 % of initial value and 110 % of initial value and 76 % of initial value; in data set [6] (setting [14]), 94 % of initial value and 87 % of initial value and 110 % of initial value and 99 % of initial value and 93 % of initial value. The “CBF (% of initial value), single experiments” value in data set [6] (setting [15]) is 84 % of initial value and 91 % of initial value and 109 % of initial value and 102 % of initial value and 93 % of initial value; in data set [6] (setting [16]), 82 % of initial value and 103 % of initial value and 106 % of initial value and 99 % of initial value and 86 % of initial value; in data set [6] (setting [17]), 85 % of initial value and 94 % of initial value and 106 % of initial value and 99 % of initial value and 84 % of initial value; in data set [6] (setting [18]), 100 % of initial value; in data set [6] (setting [19]), 0 % of initial value; in data set [6] (setting [20]), 86 % of initial value and 72 % of initial value and 85 % of initial value and 69 % of initial value and 87 % of initial value. In addition, the “CBF (% of initial value), single experiments” value in data set [6] (setting [21]) is 68 % of initial value and 101 % of initial value and 83 % of initial value and 89 % of initial value and 94 % of initial value; in data set [6] (setting [22]), 97 % of initial value and 103 % of initial value and 99 % of initial value and 89 % of initial value and 94 % of initial value; in data set [6] (setting [23]) it was 100 % of initial value and 102 % of initial value and 103 % of initial value and 91 % of initial value and 92 % of initial value; in data set [6] (setting [24]), 102 % of initial value and 103 % of initial value and 94 % of initial value and 91 % of initial value; in data set [6] (setting [25]) it was 100 % of initial value; in data set [6] (setting [26]) it was 0 % of initial value. Moreover, the “CBF (% of initial value), single experiments” value in data set [6] (setting [27]), in data set [6] (setting [28]), in data set [6] (setting [29]), in data set [6] (setting [30]), in data set [6] (setting [31]) and in data set [6] (setting [32]) was 0 % of initial value each time. Besides, the “CBF (% of initial value), single experiments” value in data set [6] (setting [33]) is recorded as 0 % of initial value. For the same compound, the “reversibility of effect on CBF” value in data set [6] (10% propylene glycol) is “reversible”; in data set [6] (25% propylene glycol) it was “reversible”; in data set [6] (50% propylene glycol), “not reversible”. The cilia activity result in data set [6] (50% (v/v) propylene glycol, after 5-15 minutes contact) is given as “completely arrested”.
